Target: T1, N-terminal HiBiT tagged BCL6 (Homo sapiens, UniProt P41182)
T1 construct: expressed in transfected cells; host or cells: HT1080 (ATCC CCL-121), stably transduced with lentivirus pLV-UBC-N-HiBiT-BCL6-PGK-puro
Test: HiBiT based degradation assay
Type: cell-based
Conditions: HT1080 cells expressing N-terminal HiBiT tagged BCL6, 5 hours of incubation; for Ymin (5 hr): BCL6 degradation normalized with DMSO control; for DC50: four-parameter logistic model, read-out: EC50 (5 hr)
Outline: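 Degradation measured by luminescence from the Nano-Glo HiBiT lytic reagent (15 min, room temperature), normalized to DMSO controls and fitted to a four-parameter curve.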

Ymin (5 hr) | DC50 [nM] | Structure (SMILES)
++ (50% ≤ Ymin < 70%) | 10 to 100 | CNC(=O)COc1cc2cc(Nc3nc(N4CCN(C[C@H]5CCN(c6ccc7c(C8CCC(=O)NC8=O)nn(C)c7c6)C5)[C@@H](C)C4)ncc3Cl)cnc2n(C(C)C)c1=O (stereo partly drawn) [Compound 216a, 2-[[6-[[5-chloro-2-[(3S)-4-[[(3R)-1-[3-(2,6-dioxo-3-piperidyl)-1-methyl-indazol-6-yl]pyrrolidin-3-yl]methyl]-3-methyl-piperazin-1-yl]pyrimidin-4-yl]amino]-1-isopropyl-2-oxo-1,8-naphthyridin-3-yl]oxy]-N-methyl-acetamide]
+++ (30% ≤ Ymin < 50%) | 10 to 100 | CNC(=O)COc1cc2cc(Nc3nc(N4CCN(C[C@@H]5CCN(c6ccc7c(C8CCC(=O)NC8=O)nn(C)c7c6)C5)[C@@H](C)C4)ncc3Cl)cnc2n(C(C)C)c1=O (stereo partly drawn) [Compound 216b, 2-((6-((5-Chloro-2-((3S)-4-(((3S)-1-(3-(2,6-dioxopiperidin-3-yl)-1-methyl-1H-indazol-6-yl)pyrrolidin-3-yl)methyl)-3-methylpiperazin-1-yl)pyrimidin-4-yl)amino)-1-isopropyl-2-oxo-1,2-dihydro-1,8-naphthyridin-3-yl)oxy)-N-methylacetamide]
++ (50% ≤ Ymin < 70%) | < 10 | CNC(=O)COc1cc2cc(Nc3nc(N4CCN(C[C@H]5CCN(c6ccc7c(C8CCC(=O)NC8=O)nn(C)c7c6)C5)[C@H](C)C4)ncc3Cl)cnc2n(C(C)C)c1=O (stereo partly drawn) [Compound 216c, 2-[[6-[[5-chloro-2-[(3R)-4-[[(3R)-1-[3-(2,6-dioxo-3-piperidyl)-1-methyl-indazol-6-yl]pyrrolidin-3-yl]methyl]-3-methyl-piperazin-1-yl]pyrimidin-4-yl]amino]-1-isopropyl-2-oxo-1,8-naphthyridin-3-yl]oxy]-N-methyl-acetamide]
+++ (30% ≤ Ymin < 50%) | < 10 | CNC(=O)COc1cc2cc(Nc3nc(N4CCN(C[C@@H]5CCN(c6ccc7c(C8CCC(=O)NC8=O)nn(C)c7c6)C5)[C@H](C)C4)ncc3Cl)cnc2n(C(C)C)c1=O (stereo partly drawn) [Compound 216d, 2-[[6-[[5-chloro-2-[(3R)-4-[[(3S)-1-[3-(2,6-dioxo-3-piperidyl)-1-methyl-indazol-6-yl]pyrrolidin-3-yl]methyl]-3-methyl-piperazin-1-yl]pyrimidin-4-yl]amino]-1-isopropyl-2-oxo-1,8-naphthyridin-3-yl]oxy]-N-methyl-acetamide]
++++ (Ymin < 30%) | 10 to 100 | CNC(=O)COc1cc2cc(Nc3cc(N4CCC(CN5CCN(c6cccc7c(C8CCC(=O)NC8=O)nn(C)c67)[C@H](C)C5)CC4)ncc3Cl)cnc2n(C(C)C)c1=O (stereo partly drawn) [Compound 217a, 2-[[6-[[5-chloro-2-[4-[[(3R)-4-[3-(2,6-dioxo-3-piperidyl)-1-methyl-indazol-7-yl]-3-methyl-piperazin-1-yl]methyl]-1-piperidyl]-4-pyridyl]amino]-1-isopropyl-2-oxo-1,8-naphthyridin-3-yl]oxy]-N-methyl-acetamide]
+ (Ymin ≥ 70%) | ≥ 1000 | CNC(=O)COc1cc2cc(Nc3cc(N4CCC(CN5CCN(c6cccc7c(C8CCC(=O)NC8=O)nn(C)c67)[C@@H](C)C5)CC4)ncc3Cl)cnc2n(C(C)C)c1=O (stereo partly drawn) [Compound 217b, 2-[[6-[[5-chloro-2-[4-[[(3S)-4-[3-(2,6-dioxo-3-piperidyl)-1-methyl-indazol-7-yl]-3-methyl-piperazin-1-yl]methyl]-1-piperidyl]-4-pyridyl]amino]-1-isopropyl-2-oxo-1,8-naphthyridin-3-yl]oxy]-N-methyl-acetamide]
+++ (30% ≤ Ymin < 50%) | < 10 | CNC(=O)COc1cc2cc(Nc3nc(N4CC[C@@H](CN5CCN(c6ccc7c(C8CCC(=O)NC8=O)nn(C)c7c6)CC5)C4)ncc3Cl)cnc2n(C(C)C)c1=O (stereo partly drawn) [Compound 218a, 2-[[6-[[5-chloro-2-[(3S)-3-[[4-[3-(2,6-dioxo-3-piperidyl)-1-methyl-indazol-6-yl]piperazin-1-yl]methyl]pyrrolidin-1-yl]pyrimidin-4-yl]amino]-1-isopropyl-2-oxo-1,8-naphthyridin-3-yl]oxy]-N-methyl-acetamide]
+++ (30% ≤ Ymin < 50%) | < 10 | CNC(=O)COc1cc2cc(Nc3nc(N4CC[C@H](CN5CCN(c6ccc7c(C8CCC(=O)NC8=O)nn(C)c7c6)CC5)C4)ncc3Cl)cnc2n(C(C)C)c1=O (stereo partly drawn) [Compound 218b, 2-[[6-[[5-chloro-2-[(3R)-3-[[4-[3-(2,6-dioxo-3-piperidyl)-1-methyl-indazol-6-yl]piperazin-1-yl]methyl]pyrrolidin-1-yl]pyrimidin-4-yl]amino]-1-isopropyl-2-oxo-1,8-naphthyridin-3-yl]oxy]-N-methyl-acetamide]

The next lines start with the molecule.

Structure (SMILES) | Ymin (5 hr) | DC50 [nM]
CNC(=O)COc1cc2cc(Nc3nc(N4CC5(CC(Oc6ccc7c(C8CCC(=O)NC8=O)nn(C)c7c6)C5)C4)ncc3Cl)cnc2n(C(C)C)c1=O (stereo not drawn) [Compound 213, 2-[[6-[[5-chloro-2-[6-[3-(2,6-dioxo-3-piperidyl)-1-methyl-indazol-6-yl]oxy-2-azaspiro[3.3]heptan-2-yl]pyrimidin-4-yl]amino]-1-isopropyl-2-oxo-1,8-naphthyridin-3-yl]oxy]-N-methyl-acetamide] | ++++ (Ymin < 30%) | < 10
CNC(=O)COc1cc2cc(Nc3nc(N4CCC(CN5CCN(c6ccc7c(C8CCC(=O)NC8=O)nn(C)c7c6)CC5)CC4)ncc3Cl)cnc2n(C(C)C)c1=O (stereo not drawn) [Compound 214, 2-((6-((5-chloro-2-(4-((4-(3-(2,6-dioxopiperidin-3-yl)-1-methyl-1H-indazol-6-yl)piperazin-1-yl)methyl)piperidin-1-yl)pyrimidin-4-yl)amino)-1-isopropyl-2-oxo-1,2-dihydro-1,8-naphthyridin-3-yl)oxy)-N-methylacetamide] | +++ (30% ≤ Ymin < 50%) | < 10
CNC(=O)COc1cc2cc(Nc3nc(N4CCC(CN5CCN(c6ccc7c(C8CCC(=O)NC8=O)nn(C)c7c6)C[C@H]5C)CC4)ncc3Cl)cnc2n(C(C)C)c1=O (stereo partly drawn) [Compound 215a, 2-((6-((5-chloro-2-(4-(((2R)-4-(3-(2,6-dioxopiperidin-3-yl)-1-methyl-1H-indazol-6-yl)-2-methylpiperazin-1-yl)methyl)piperidin-1-yl)pyrimidin-4-yl)amino)-1-isopropyl-2-oxo-1,2-dihydro-1,8-naphthyridin-3-yl)oxy)-N-methylacetamide] | +++ (30% ≤ Ymin < 50%) | < 10
CNC(=O)COc1cc2cc(Nc3nc(N4CCC(CN5CCN(c6ccc7c(C8CCC(=O)NC8=O)nn(C)c7c6)C[C@@H]5C)CC4)ncc3Cl)cnc2n(C(C)C)c1=O (stereo partly drawn) [Compound 215b, 2-((6-((5-chloro-2-(4-(((2S)-4-(3-(2,6-dioxopiperidin-3-yl)-1-methyl-1H-indazol-6-yl)-2-methylpiperazin-1-yl)methyl)piperidin-1-yl)pyrimidin-4-yl)amino)-1-isopropyl-2-oxo-1,2-dihydro-1,8-naphthyridin-3-yl)oxy)-N-methylacetamide] | +++ (30% ≤ Ymin < 50%) | 10 to 100

Reference: patent US20260241012A1, “1,8-NAPHTHYRIDIN-2-ONE HETEROBIFUNCTIONAL BCL6 DEGRADERS” (Treeline Biosciences, Inc., priority 2022, published 2026)
